Experimental data reported in PMC7607171, “Optimized low‐dose combinatorial drug treatment boosts selectivity and efficacy of colorectal carcinoma treatment” (Molecular Oncology, 2020).
Several values for one entry are separate records, joined by “and”; a condition that tells them apart may be missing. Identical values can stand only once. Like-named read-outs stand apart in the source and are kept apart here.

Assays:
[1] = Serum and intratumor drug concentration at experimental endpoint, SW620 model; assay type: in vivo, mice; settings: for concentration at 1 h / Kp at 1 h: Swiss Nu/nu, mouse, oral; for concentration at 1 h: 1h post-treatment at endpoint (day 19); for Kp at 1 h: tumor vs serum, read-out: ratio tumor vs serum; for Kp at 1 h / ratio ODC vs single drug: SW620 model
Description: (§1) At the experimental endpoint, plasma and tumors were collected 1h post‐treatment and part of the tumor tissue was used to determine the intratumor drug concentrations. Plasma and tumor samples were analyzed using the same LC‐MS/MS method used for drug determination in DBS. Before analysis, tumor tissues were homogenized in a 1 mL mixture of water/acetonitrile (30/70). Hundred uL of homogenates were transferred into new tubes and 50 µL of acetonitrile, as well as 50 µL of a mix of internal standards in MeOH were added. Tubes were vortexed and centrifuged for 10 min at 9,000 rpm. The supernatant (100 µL) was evaporated under nitrogen and reconstituted in 100 µL of acetonitrile with 0.1% formic acid/water with 0.1% formic acid (30/70). 10 µL was then injected into the LC‐MS/MS system. Plasma samples were spotted onto the same paper used for whole blood analysis and were extracted and analyzed using the same methods as used for DBS.

[2] = Clinical plasma pharmacokinetics in patients, plasma concentration limit calculation; assay type: in vivo; settings: average plasma concentration calculated from AUC0-24h in patients
Description: To select for clinically relevant doses, the clinically attainable drug concentration measured in the blood plasma of patients after treatment is used to calculate the concentration limit for in vitro experiments. […] The average drug concentration is calculated from the AUC0–24h and is implemented as the plasma concentration limit (PCL) which drug dose selection must remain below for in vitro experiments. If a drug is FDA approved, the AUC0–24h selected is the one corresponding to the recommended dose in clinical practice. If a drug is in clinical trials, the AUC0–24h selected is the one corresponding to the maximum tolerated dose in early stage clinical trials. Note, experiments were conducted with the most current PCL calculated from the AUC0–24h information available at the start of experiments (December 2017), see Table S4.

[3] = Serum and intratumor drug concentration at experimental endpoint, DLD1 model; assay type: in vivo, mice; settings: for concentration at 1 h / Kp at 1 h: Swiss Nu/nu, mouse, oral; for concentration at 1 h: 1h post-treatment at endpoint (day 15); for Kp at 1 h: tumor vs serum, read-out: ratio tumor vs serum; for Kp at 1 h / ratio ODC vs single drug: DLD1 model
Description: as §1

SW620 tumors = experiment: Subcutaneous xenograft tumor growth; assay type: in vivo, Swiss nu/nu mice
Description: All procedures including animal use were performed in accordance with the Institutional Ethical Committee of Animal Care in Geneva and the Swiss Cantonal Veterinary Office (Authorization number GE‐136‐19). Briefly, female and male Swiss nu/nu mice aged 6–8 weeks were obtained from Charles River (Écully, France). For subcutaneous xenografts mice were inoculated in the left flank with 5x10^6 DLD1 or SW620 cells suspended in 100 µL of cell culture medium, supplemented with 1% FBS. Treatment was initiated when palpable tumors had formed (approximately 30 mm^3) on day 4 for DLD1 and day 5 for the SW620 model.
Treatment was initiated once tumor growth was confirmed with bioluminescence measurements. Drugs were administered through oral gavage based on average body weight of the males (100 µL/mouse) and females (80 µL/mouse) at various concentrations, see Tables S10 and S11.
Solution A: step (1) 30% PEG 400 + 5% propylene glycol + 0.5% Tween 80 and (2) 64.5% sterile H2O. Solution B: step (1) 10% DMSO, (2) 30% PEG 300 + 5% Tween 80 and (3) 55% sterile H2O. Vemurafenib was prepared 2x concentrated (half or three/sixth of total solution), and the remaining drugs were prepared 6x concentrated (one/sixth of total solution), after which drugs were diluted to prepare 1x drug concentrations for the ODC or single drugs using the other drugs or complete solvent solutions without drugs for lower concentrations. FOLFOX was administered as 6 mg/kg oxaliplatin two hours before administration of 90 mg/kg leucovorin and 50 mg/kg (DLD1) or 25 mg/kg (SW620) 5‐fluorouracil at day 1 and a repeat of 5‐fluorouracil dosing on day 2.
The Bliss independence model can be used to evaluate the drug interaction potential of a drug mixture. The model is based on the principle that each drug has an independent drug mechanism of action, but all contribute to a common result (e.g., cell death or tumor volume inhibition). The model is based on the probability theory and requires the drug activity of each drug at the selected dose to predict the inhibition rate (IR) at additive doses. For in vivo tumor volume results, we predicted the IR based on the fraction of tumor volume remaining after single‐drug treatment of each of the drugs vs 100% CTRL (F1,2,3,4), using the following formula: IR = […].

[4] = Pharmacokinetics, dried blood spot LC-MS/MS, mice with DLD1 tumors; assay type: in vivo; settings: for Tmax / AUC(0-t) / Cmax: Swiss Nu/nu, mouse, whole blood (dried blood spot), po, regorafenib 15, erlotinib 12.5, selumetinib 5, vemurafenib 75 mg/kg; for AUC(0-t) / Cmax: whole blood, mean ± SD; for AUC(0-t): oral, read-out: AUC0-24h; for increase of AUC as part of the ODC vs single-drug treatment: mice with DLD1 tumors, AUC0-24h
Description: The pharmacokinetic (PK) study was performed using the dried blood spot method. Mice were treated with CTRL, ODCs, and corresponding monotherapies as described above. To determine the disposition in blood in the first 24h, blood samples (5 µL/mouse) were collected from the tail vein (n = 4 mice) at 2h, 4h, 8h, and 24h time points and transferred onto paper (a filter paper 903 protein saver card from Whatman (MA, USA)). A disk with the entire spot was punched from the paper card and transferred to the HPLC vial tube. Hundred µL of MeOH containing a mix of internal standards was added, and the tube was vortex‐mixed for about 1 min before injecting 10 µL into the LC‐MS/MS system. The LC‐MS/MS system consisted of an API 4,000 triple quadrupole mass spectrometer (AB sciex, Concord, ON, Canada) controlled by analyst 1.6.1 software. The mass spectrometer was operated in the multiple reaction monitoring (MRM) mode with positive electrospray ionization. The instrument was coupled with an Agilent series 1100 (Waldbronn, Germany) LC system. Chromatography was performed on a Phenomenex Kinetex C18 analytical column (50 mm x 2.1 mm, 2.6 um; Torrance, CA, USA). The flow rate was 0.5 mL/min using gradient elution conditions. The method was fully validated before application to this pharmacokinetic study.

[5] = serum, as part of ODC, regorafenib 30, selumetinib 0.2, vemurafenib 75, GDC-0994 10 mg/kg, read-out: concentration serum
[6] = serum, single drug, regorafenib 30, selumetinib 0.2, vemurafenib 75, GDC-0994 10 mg/kg, read-out: concentration serum
[7] = tumor (SW620), as part of ODC, SW620 tumor, doses as E164, read-out: concentration tumor
[8] = tumor (SW620), single drug, SW620 tumor, doses as E164, read-out: concentration tumor
[9] = serum, as part of ODC, regorafenib 15, erlotinib 12.5, selumetinib 5, vemurafenib 75 mg/kg, read-out: concentration serum
[10] = serum, single drug, regorafenib 15, erlotinib 12.5, selumetinib 5, vemurafenib 75 mg/kg, read-out: concentration serum
[11] = tumor (DLD1), as part of ODC, DLD1 tumor, doses as E156, read-out: concentration tumor
[12] = tumor (DLD1), single drug, DLD1 tumor, doses as E156, read-out: concentration tumor
[13] = regorafenib 30 mg/kg, Exp 4, Day 22
[14] = regorafenib 30 mg/kg, Exp 6, Day 20
[15] = regorafenib 30 mg/kg, Exp 8, Day 19
[16] = given as part of DLD1-specific ODC
[17] = selumetinib 0.2 mg/kg, Exp 6, Day 20
[18] = selumetinib 0.2 mg/kg, Exp 8, Day 19
[19] = selumetinib 1 mg/kg, Exp 4, Day 22
[20] = selumetinib 10 mg/kg, Exp 4, Day 22
[21] = vemurafenib 75 mg/kg, Exp 6, Day 20

| concentration at 1 h [1, 5] [ng/mL] | concentration at 1 h [1, 6] [ng/mL] | concentration at 1 h [1, 7] [ng/g] | concentration at 1 h [1, 8] [ng/g] | Kp at 1 h ([1]; as part of ODC) | Kp at 1 h ([1]; single drug) | PCL (plasma concentration limit) [2] | concentration at 1 h [3, 9] [ng/mL] | concentration at 1 h [3, 10] [ng/mL] | concentration at 1 h [3, 11] [ng/g] | concentration at 1 h [3, 12] [ng/g] | Kp at 1 h ([3]; as part of ODC) | Kp at 1 h ([3]; single drug) | Tmax [4, 16] [h] | AUC(0-t) [4, 16] [ng·h/mL] | Cmax [4, 16] [ng/mL] | Tmax ([4]; mono) [h] | AUC(0-t) ([4]; mono) [ng·h/mL] | Cmax ([4]; mono) [ng/mL] | increase of AUC as part of the ODC vs single-drug treatment [4] [x] | Structure (SMILES) | further results |
| --- | --- | --- | --- | --- | --- | --- | --- | --- | --- | --- | --- | --- | --- | --- | --- | --- | --- | --- | --- | --- | --- |
| 6600 ± 2800 | 2220 ± 70 | 1820 ± 770 | 1330 ± 230 | 0.28 | 0.6 | 4.34 µM and 4.3 µM | 1830 ± 540 | 880 ± 250 | 8670 ± 5530 | 1540 ± 680 | 4.74 | 1.76 | 4 | 49400 ± 2980 | 3380 ± 490 | 8 | 17500 ± 5790 | 1190 ± 690 | 2.8 | CNC(=O)c1cc(Oc2ccc(NC(=O)Nc3ccc(Cl)c(C(F)(F)F)c3)c(F)c2)ccn1 [regorafenib] | ratio ODC vs single drug ([1]; serum): 2.97; ratio ODC vs single drug ([1]; tumor): 1.37; ratio ODC vs single drug ([3]; serum): 2.09; ratio ODC vs single drug ([3]; tumor): 5.62; % CTRL (tumor volume) (SW620 tumors; [13]): 117 45 20 % CTRL; Volume (SW620 tumors; [13]): 567 220 98 mm^3; % CTRL (tumor volume) (SW620 tumors; [14]): 90 78 35 % CTRL; Volume (SW620 tumors; [14]): 468 407 182 mm^3; % CTRL (tumor volume) (SW620 tumors; [15]): 44 18 10 % CTRL; Volume (SW620 tumors; [15]): 278 111 64 mm^3 |
| 280 ± 200 | 410 ± 350 | 220 ± 100 | 560 ± 90 | 0.77 | 1.39 | 0.60 µM and 0.6 µM | 3490 ± 900 | 2500 ± 1080 | 4530 ± 1950 | 1980 ± 660 | 1.3 | 0.79 | 2 | 24800 ± 8250 | 3830 ± 1640 | 2 | 15200 ± 7590 | 1220 ± 330 | 1.6 | Cn1cnc2c(F)c(Nc3ccc(Br)cc3Cl)c(C(=O)NOCCO)cc21 [selumetinib] | % CTRL (tumor volume) (SW620 tumors; [17]): 76 41 21 % CTRL; Volume (SW620 tumors; [17]): 393 214 107 mm^3; % CTRL (tumor volume) (SW620 tumors; [18]): 93 5 3 % CTRL; Volume (SW620 tumors; [18]): 588 30 21 mm^3; % CTRL (tumor volume) (SW620 tumors; [19]): 67 55 24 % CTRL; Volume (SW620 tumors; [19]): 323 265 118 mm^3; % CTRL (tumor volume) (SW620 tumors; [20]): 43 20 9 % CTRL; Volume (SW620 tumors; [20]): 209 95 43 mm^3 |

| Structure (SMILES) | concentration at 1 h [1, 5] [ng/mL] | concentration at 1 h [1, 6] [ng/mL] | concentration at 1 h [1, 7] [ng/g] | concentration at 1 h [1, 8] [ng/g] | Kp at 1 h ([1]; as part of ODC) | Kp at 1 h ([1]; single drug) | PCL (plasma concentration limit) [2] | concentration at 1 h [3, 9] [ng/mL] | concentration at 1 h [3, 10] [ng/mL] | concentration at 1 h [3, 11] [ng/g] | concentration at 1 h [3, 12] [ng/g] | Kp at 1 h ([3]; as part of ODC) | Kp at 1 h ([3]; single drug) | Tmax [4, 16] [h] | AUC(0-t) [4, 16] [ng·h/mL] | Cmax [4, 16] [ng/mL] | Tmax ([4]; mono) [h] | AUC(0-t) ([4]; mono) [ng·h/mL] | Cmax ([4]; mono) [ng/mL] | increase of AUC as part of the ODC vs single-drug treatment [4] [x] | further results |
| --- | --- | --- | --- | --- | --- | --- | --- | --- | --- | --- | --- | --- | --- | --- | --- | --- | --- | --- | --- | --- | --- |
| CCCS(=O)(=O)Nc1ccc(F)c(C(=O)c2c[nH]c3ncc(-c4ccc(Cl)cc4)cc23)c1F [vemurafenib] | 1770 ± 770 | 1960 ± 1050 | 890 ± 530 | – | 0.5 | 0.48 | 11.1 µM | 910 ± 380 | 620 | 1650 ± 1000 | 790 | 1.81 | 1.28 | 4 | 14400 ± 2740 | 1050 ± 360 | 2 | 2180 ± 220 | 270 ± 80 | 6.6 | ratio ODC vs single drug ([1]; serum): 0.90; ratio ODC vs single drug ([1]; tumor): 0.95; ratio ODC vs single drug ([3]; serum): 1.48; ratio ODC vs single drug ([3]; tumor): 2.09; % CTRL (tumor volume) (SW620 tumors; [21]): 65 42 21 % CTRL; Volume (SW620 tumors; [21]): 337 219 109 mm^3; % CTRL (tumor volume) (SW620 tumors; vemurafenib 75 mg/kg, Exp 8, Day 19): 94 48 58 % CTRL |
